We go through one compound from patent publication US6340694B1, “Diarylbenzopyran derivatives as cyclooxygenase-2 inhibitors” (Pacific Corporation, priority 1998, dated 2002).

Structures are written as SMILES.

The target in series [1] is T1, COX-2 (Mus musculus, UniProt Q05769).
T1 construct: endogenous in cells; host or cells: peritoneal macrophages of C57BL/6 mouse, aspirin-pretreated, LPS-induced
T1 sequence (Q05769 18-604): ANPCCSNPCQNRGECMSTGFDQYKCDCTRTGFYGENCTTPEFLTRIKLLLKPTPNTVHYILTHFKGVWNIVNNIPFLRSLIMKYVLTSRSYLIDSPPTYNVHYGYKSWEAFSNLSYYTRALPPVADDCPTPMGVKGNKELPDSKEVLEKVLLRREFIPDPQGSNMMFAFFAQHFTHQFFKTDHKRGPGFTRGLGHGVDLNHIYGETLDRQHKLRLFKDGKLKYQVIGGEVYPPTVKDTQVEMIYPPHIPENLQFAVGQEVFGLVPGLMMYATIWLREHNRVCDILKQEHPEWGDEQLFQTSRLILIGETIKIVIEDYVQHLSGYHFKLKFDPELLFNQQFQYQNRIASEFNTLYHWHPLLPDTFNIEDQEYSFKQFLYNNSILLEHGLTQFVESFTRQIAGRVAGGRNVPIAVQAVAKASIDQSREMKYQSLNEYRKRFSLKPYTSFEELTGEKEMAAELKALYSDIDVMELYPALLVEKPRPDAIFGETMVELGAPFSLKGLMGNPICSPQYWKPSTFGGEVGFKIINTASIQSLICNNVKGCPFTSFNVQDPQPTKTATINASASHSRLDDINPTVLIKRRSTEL
Kind of series: Evaluation of COX-2's inhibition efficacy (PGE2 radioimmuno assay, LPS-induced, aspirin-pretreated peritoneal macrophages). Type of series: cell-based, C57BL/6 mouse. The method in brief:
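C57BL/6 mouse peritoneal macrophages, adhered 2 h at 37 °C, were LPS-stimulated to induce COX-2. Cells were then treated 10 min with compound, followed by 10 min with 10 μM arachidonic acid (final). PGE2 in the supernatant was quantified by radioimmunoassay.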

In series [2] the test system is edema in mouse's ear. The series is described as follows: Depressant action on edema in mouse's ear (TPA-induced, myeloperoxidase). Particulars: topical on ear, TPA 25 μg, 5 hours. Format: in vivo, ICR mouse. As for the experimental part:
(§1) Regarding the compounds in some of the above Examples and indomethacin, depressant action on edema in mouse's ear and depressant action on edema in mouse's foot being induced by carrageenan are being measured by the following 2 methods. And the results of the depressant action on edema in mouse's ear and depressant action on edema in mouse's foot being induced by carrageenan are shown in Table 5.
1. Measurement of Depressant Action on Edama in Mouse's Ear
At 30 minutes after coating the left ear of ICR mouse, weighing 20 g, with a solution of appropriate amount of sample in 20 μl of mixed solvent DMSO:acetone(1:9), 25 μg of TPA(tetradecanoylphorbol acetate) was coated on both ears. The determination of depressant action on edama was made in 5 hours later by the number of neutral granulocyte gathering in the ear after inducing TPA inflammation. The number of neutral granulocyte was estimated by measuring the activation of myeloperoxidase.

Series [3] has as its system edema in mouse's foot induced by carrageenan. Kind of series: Depressant action on edema in mouse's foot induced by carrageenan. Format: in vivo, Male Sprague-Dawley rat. Particulars: po, 3 h, 50 mg/kg p.o., read-out: depressant rate of edema rate induced by carrageenan (oral administration), % depression. As for the experimental part:
as §1
2. Measurement of Depressant Action on Edama in Mouse's Foot Induced by Carrageenan
At 1 hour after oral administering to Male-Sprague-Dawley-white mouse, weighing 150˜200 g, with a suspended solution of appropriate amount of sample in 0.5% of carboxymethyl cellulose and 0.2% of TWEN solution, edema on the right foot of mouse was induced by injecting 0.1 ml(1%) of carrageenan-saline solution. Right after the inducement of edema by carrageenan and 3 hours later, the edema rate was estimated by measuring white mouse's foot volume with Displacement Plethysmometer(Ugo Basile, Italy). Carrageenan injection Drug was administered 1 hour before the carrageenan injection. Depressant rate of edema is produced by the following equation 1.
% Depressant rate of edema=(1 ? Vtreated group/ ? Vcontrol group)×100 ? V: change of foot volume [Equation 1]

The inhibition is the percentage by which the read-out fell short of the control. Usually melting point stands for the temperature of the solid-liquid transition.

The compound `Cc1ccc(-c2c(-c3ccc(S(C)(=O)=O)cc3)oc3ccccc3c2=O)cc1` [Example 3, 3-(4-Methylphenyl)-2-(4-(methylsulfonyl)phenyl)-4H-1-benzopyran-4-one] gave a melting point of 225 °C. Also, the inhibition at 0.1 µg/mL in series [1] (0.1 μg/ml) came out at 13%. In addition, the inhibition at 1 µg/mL in series [1] (1 μg/ml) was found to be 61%. The inhibition at 10 µg/mL in series [1] (10 μg/ml) was 72%. The “depressant rate of ear edema, ED50” value in series [2] was 1.2 mg/ear, ED50. Moreover, the inhibition in vivo at 50 mg/kg in series [3] is 52%.
